# From PMC12682947, “Identification of New KCNT1‐Epilepsy Drugs by In Silico, Cell, and Drosophila Modeling” (Annals of Neurology, 2025)
# Counter-ions that a name gives are not always drawn.
# System: Drosophila KCNT1 mutant line R398Q
# Assay: Bang-sensitive behavioral seizure assay, Drosophila KCNT1 mutant line R398Q
# Format: in vivo, Drosophila melanogaster
# Conditions: drug in food
# Description: The Drosophila melanogaster lines carrying the WT human KCNT1 transgene (NM_020822_3) or KCNT1 mutant G288S, R398Q or R928C transgene placed downstream of the yeast UAS promoter, have been described previously.[11] WT or mutant human UAS‐KCNT1 flies were crossed to flies expressing the GAL4 transcriptional activator under the control of the GAD1 promoter (GABAergic driver, Bloomington stock number 51630 P2) to drive expression of KCNT1 in GABAergic neurons, involved in neuronal inhibition.[11]
# The bang‐sensitive behavioral assay (also known as the banging assay) was used to test for the presence of a seizure phenotype in Drosophila.[11], [30] Experiments were performed and scored, as previously described,[11] with a minimum of 50 Drosophila tested for each genotype and drug concentration.
# Four drugs were selected for in vivo analysis to determine their effects on the seizure phenotypes in transgenic Drosophila lines with human mutant KCNT1 channels. […]
# In all experiments, experimenters were not blinded to variants or treatments, nor were samples randomly assigned to groups. Sample sizes were not calculated in advance and no data were excluded from the analysis. Data were analyzed using GraphPad Prism 9 software (San Diego, CA, USA). […] All data passed normality and lognormality Shapiro–Wilk tests, determined by GraphPad Prism 9. […]
row,SMILES,reduction of the seizure phenotype
1,Cc1c(O)cccc1C(=O)N[C@@H](CSc1ccccc1)[C@H](O)CN1C[C@H]2CCCC[C@H]2C[C@H]1C(=O)NC(C)(C)C [nelfinavir mesylate],50%
2,O=C(OCCN1CCN(c2cccc(C(F)(F)F)c2)CC1)c1ccccc1Nc1ccnc2cc(C(F)(F)F)ccc12 [antrafenine],at least 50%
